Key:
[1] = test system: S. aureus engineered with murB antisense
MetRS antisense clones = format: cell-based, B. anthracis
[2] = test system: B. anthracis murB-2 antisense strain

Row | SMILES | IC50 shift (sensitivity), antibiotic panel [1] [fold] | IC50 shift [1] | difference in sensitivity with and without inducer (MetRS antisense clones) | IC50 shift [2]
1 | CCN1CCN(C(=O)N[C@@H](C(=O)N[C@@H]2C(=O)N3[C@@H]2SC(C)(C)[C@@H]3C(=O)O)c2ccccc2)C(=O)C1=O [pipericillin] | ≥ 4 |  |  | 
2 | Cc1onc(-c2ccccc2)c1C(=O)N[C@@H]1C(=O)N2[C@@H]1SC(C)(C)[C@@H]2C(=O)O [oxacillin] | ≥ 4 |  |  | 
3 | CO[C@@]1(NC(=O)Cc2cccs2)C(=O)N2C(C(=O)O)=C(COC(N)=O)CS[C@@H]21 [cefoxitin] | ≥ 4 | 7.8 |  | 
4 | CO/N=C(\C(=O)N[C@@H]1C(=O)N2C(C(=O)O)=C(CSc3nc(=O)c(=O)[nH]n3C)CS[C@H]12)c1csc(N)n1 [ceftriaxone] | ≥ 4 |  |  | 
5 | Cc1nnc(SCC2=C(C(=O)O)N3C(=O)[C@@H](NC(=O)Cn4cnnn4)[C@H]3SC2)s1 [cefozolin] | ≥ 4 |  |  | 
6 | CO/N=C(\C(=O)N[C@@H]1C(=O)N2C(C(=O)O)=C(COC(C)=O)CS[C@H]12)c1csc(N)n1 [cefotaxime] | ≥ 4 |  | no difference in sensitivity | 343
7 | CO/N=C(\C(=O)N[C@@H]1C(=O)N2C(C(=O)[O-])=C(C[N+]3(C)CCCC3)CS[C@H]12)c1csc(N)n1 [cefepime] | ≥ 4 |  |  | 
8 | Cc1onc(-c2c(Cl)cccc2Cl)c1C(=O)N[C@@H]1C(=O)N2[C@@H]1SC(C)(C)[C@@H]2C(=O)O [dicloxacillin] | ≥ 4 | 5.8 |  | 
